{"source": "patent US10085953B2", "about": "“Skin cancer treatment” (Avexxin AS, priority 2014, dated 2018)", "system": "EGF-induced AA release in HaCaT keratinocytes", "assay": "[3H]-Arachidonic acid release assay in EGF-stimulated HaCaT keratinocytes", "assay_type": "cell-based, human", "details": "EGF 100 ng/ml 1 h, dose-dependent, FIG. 2", "protocol": "The spontaneously immortalized skin keratinocyte cell line HaCaT (kindly provided by Prof. N. Fusenig, Heidelberg, Deutsches Krebsforschungszentrum, Germany) was cultured in DMEM supplemented with 10% (v/v) FBS, 0.3 mg/ml glutamine, and 0.1 mg/ml gentamicin at 37° C. with 5% CO2 in a humidified atmosphere. For release assays, flow cytometry cell cycle analysis and in vitro cPLA2α activity assay, cells were grown in 48 well trays or in 6 well trays, respectively. Cells were cultivated until 2 days post-confluency; serum starved in DMEM/0.5% FBS overnight and processed at day 3 post-confluence to ensure differentiation. Experiments were performed in DMEM/0.5% FBS. Untreated cells without inducing agents were included for unstimulated control. […] Cells were lysed and 200 μg of total protein was analyzed for cPLA2α activity as described. […] Following washing three times with Tris-buffered saline containing […], immunoreactive proteins were detected by horseradish peroxidase-conjugated secondary antibody (1 hour at room temperature) and SuperSignal® West Femto Maximum Sensivity substrate. Blots were analyzed by the BioRad Image Lab software, and target protein band intensities were normalized to α-tubulin. […] After labelling, the cells were washed twice with phosphate-buffered saline (PBS) containing fatty acid free BSA (2 mg/ml) (fBSA) in order to remove unincorporated radioactivity. […]", "note": "Entries after “also recorded” stand apart in the source; their conditions may differ.", "data": [{"smiles": "CC/C=C\\C/C=C\\C/C=C\\C/C=C\\C/C=C\\CCSCC(=O)C(F)(F)F", "note": "[AVX002]", "values": [{"measurement": "effect on EGF-induced AA-release", "result": "completely abrogated; also recorded: reduced AA-release to below basal release in a dose-dependent manner"}]}]}
